# Assay results: US12616706B2, “Compositions and methods of use comprising substances with neural plasticity actions administered at non-psychedelic/psychotomimetic dosages and formulations” (Arbormentis LLC, priority 2019, dated 2026)
# Values joined by “and” are separate entries in the source; they are usually repeats but may differ in a detail not shown here. Equal values may be shown once.
# Legend:
# [1] = test system: NMDAR2A; assay: NMDAR2A protein expression in ARPE-19 cells (immunofluorescence); assay type: cell-based
# Experimental: (§1) First, the present inventors assessed the expression of three NMDAR subunits (NMDAR1, NMDAR2A, NMDAR2B) and two 5-HT2 subtypes (5-HT2A, 5-HT2C) by immunofluorescence coupled to confocal microscopy. 7,500 cells/well were plated in a 24-well plate on sterile glass coverslips. The next day, the immunofluorescence analysis was performed. The following primary antibodies were used: anti-NMDAR1A (Abcam, ab68144), NMDAR2A (Bioss, bs-3507R-TR), NMDAR2B (Bioss, bs-0222R-TR), 5-HT2A (Bioss, bs-12049R), 5-HT2C (Bioss, 2959R), and the secondary antibody goat anti-rabbit IgG (GeneTex, GTX213110-04). The images of the immunostained cells were acquired by means of a confocal microscope Zeiss LSM 800, using a 63× magnification and can be seen in FIGS. 9A-9E. ImageJ software was used to quantify the intensity of the fluorescent signal.
# (§2) 7,500 cells/well were plated in a 24-well plate on sterile glass coverslips. […] After 6 days an immunofluorescence analysis coupled to confocal microscopy was performed with the primary and secondary antibodies described above.
# [2] = test system: keratocytes; assay: Cell viability, MTT test, keratocytes; assay type: cell-based, human
# Experimental: (§3) Primary corneal keratocytes were obtained after digestion of human corneas from healthy donors purchased at the Veneto Eye Bank Foundation (Venezia Mestre, Italy). After the corneal epithelium was removed with a cell scraper and the endothelium was enzymatically detached using 0.05% trypsin/0.02% EDTA-solution for 15 minutes at 37° C., the stroma was then cut into 3- to 4-mm pieces and treated overnight at 37° C. with type I collagenase (100 U/ml) and hyaluronidase (2 mg/ml) solutions in Dulbecco's Modified Eagle's Medium (DMEM). Isolated keratocytes were then seeded in monolayer and cultured at 37° C. with 5% CO2 in DMEM containing 10% FBS, 1% penicillin-streptomycin (P/S) and 1% L-glutamine (otherwise known as complete medium). Expanded cells were trypsinized and sub-cultured at a ratio of 1:2. Corneal cells were grown under standard cell culture practices in complete DMEM medium at 37° C., in a 5% CO2 atmosphere. U937 human monocytes were grown in suspension in complete RPMI 1640 medium and passaged twice weekly by dilution using a seeding density of 10^6 cells/ml.
# (§4) With this procedure, only viable cells with functioning mitochondria can oxidize MTT to a violet-red reaction product.
# [3] = test system: IL-8; assay: IL-8 expression in keratocytes exposed to CM of activated U937 (qPCR); assay type: cell-based, human; details: 0.1 and 1 μM psilocin, 4 and 10 h
# Experimental: (§5) Anti-inflammatory and anti-fibrotic effects evaluations. Cytokines expression was analyzed in human keratocytes and HCE cells exposed to the inflammatory conditioned medium (CM) of activated U937 cells.
# (§6) U937 human monocytes were differentiated to macrophages by treatment with 50 ng/mL phorbol myristate acetate (PMA) for 48 h followed by the exposure to […] lipopolysaccharide (LPS) for 1 hour. Cells were then washed and cultivated with complete RPMI for 24 hours to produce the inflammatory CM. The CM was collected, filtered and stored at −80° C. The differentiation of monocytes to macrophages was examined under an inverted phase-contrast microscope and the mRNA expression of the macrophage differentiation marker CD68 was analysed by quantitative real time PCR (qPCR). Cells were then washed and cultivated with complete DMEM for 24 hours to produce the CM. The CM was collected, filtered and stored at −80° C.
# (§7) At 4 and 10 or at 4, 10 and 24 h cells were detached […] extracted to analyze the expression of pro-inflammatory cytokines (IL-1β, TNF-α, IL-8, IL-12, IFNγ). The expression of type collagen I and VEGF was analysed on mRNA extracted from keratocyte cell cultures. The experiments were performed three times.
# [4] = test system: IL-1β; assay: IL-1β expression in keratocytes exposed to CM of activated U937 (qPCR); assay type: cell-based, human; details: 0.1 and 1 μM psilocin, 4 h
# Experimental: as §5, §6, §7
# [5] = test system: NMDAR1; assay: NMDAR1 protein expression in ARPE-19 cells (immunofluorescence); assay type: cell-based
# Experimental: as §1, §2
# [6] = test system: NMDAR2B; assay: NMDAR2B protein expression in ARPE-19 cells (immunofluorescence); assay type: cell-based
# Experimental: as §1, §2
# [7] = test system: IL-12; assay: IL-12 expression in keratocytes exposed to CM of activated U937 (qPCR); assay type: cell-based, human; details: 0.1 and 1 μM psilocin, 4 and 10 h
# Experimental: as §5, §6, §7
# [8] = test system: TNF-α; assay: TNF-α expression in keratocytes exposed to CM of activated U937 (qPCR); assay type: cell-based, human; details: 0.1 and 1 μM psilocin
# Experimental: as §5, §6, §7
# [9] = test system: IL-8; assay: IL-8 expression in HCE cells exposed to CM of activated U937 (qPCR); assay type: cell-based, human; details: 0.1 and 1 μM psilocin, 10 h
# Experimental: as §5, §6, §7
# [10] = test system: Human corneal epithelial (HCE) cells; assay: Cell viability, MTT test, HCE cells; assay type: cell-based
# Excerpt: (§8) Cell cultures. Human corneal epithelial (HCE) cells were obtained from the American Type Culture Collection. U937 human monocytes cell line was purchased from Thermo Scientific.
# as §4
# [11] = test system: corneal cells; assay: Psilocin cytotoxicity in corneal cells; assay type: cell-based, human; details: 0.001 to 10 μM, assessed 3 days after treatment
# Experimental: as §8, §3, §4
# [12] = test system: IMR-90; assay: Beta Gal assay, UVB induced senescence; assay type: cell-based
# Excerpt: Seeding occurred on Day 1, with pretreatment on Day 2, and UVB-induction and retreatment on Day 3, SABG on Day 8, and microscopy (SABG) on Day 9. […] Results for Example 6 can be seen in FIGS. 19A-27D, and Tables 4, 5, and 6 below.
# [13] = test system: 5-HT2C; assay: 5-HT2C receptor expression in ARPE-19 cells (immunofluorescence); assay type: cell-based; details: chronic treatment with psilocin
# Experimental: as §1, §2
# [14] = after ingestion of psilocybin mushrooms; cited from earlier work
# [15] = test system: collagen type I; assay: Collagen type I expression in keratocytes exposed to CM of activated U937 (qPCR); assay type: cell-based, human; details: 0.1 and 1 μM psilocin, 4, 10 and 24 h
# Experimental: as §5, §6, §7
# [16] = test system: 5-HT2A; assay: 5-HT2A receptor expression in ARPE-19 cells (immunofluorescence); assay type: cell-based; details: acute and chronic psilocin exposure; decreasing tendency
# Experimental: as §1, §2
# [17] = test system: VEGF; assay: VEGF expression in keratocytes exposed to CM of activated U937 (qPCR); assay type: cell-based, human; details: 0.1 and 1 μM psilocin, 4, 10 and 24 h
# Experimental: as §5, §6, §7
# [18] = test system: BDNF; details: only the lower dose, 25 mg daily, 14-day period; cited from earlier work
# [19] = target: 5-HT2A receptors (Homo sapiens, UniProt P28223); details: Rickli et al., 2017; cited from earlier work
# [20] = cited from earlier work
# [21] = 3 and 6 days after treatment, 0.01, 0.1 and 1 μM
# [22] = 0.05 μM, alternating medium with/without psilocin every 24 hours (96 hours)
# Sequence of 5-HT2A receptors (P28223 whole entry): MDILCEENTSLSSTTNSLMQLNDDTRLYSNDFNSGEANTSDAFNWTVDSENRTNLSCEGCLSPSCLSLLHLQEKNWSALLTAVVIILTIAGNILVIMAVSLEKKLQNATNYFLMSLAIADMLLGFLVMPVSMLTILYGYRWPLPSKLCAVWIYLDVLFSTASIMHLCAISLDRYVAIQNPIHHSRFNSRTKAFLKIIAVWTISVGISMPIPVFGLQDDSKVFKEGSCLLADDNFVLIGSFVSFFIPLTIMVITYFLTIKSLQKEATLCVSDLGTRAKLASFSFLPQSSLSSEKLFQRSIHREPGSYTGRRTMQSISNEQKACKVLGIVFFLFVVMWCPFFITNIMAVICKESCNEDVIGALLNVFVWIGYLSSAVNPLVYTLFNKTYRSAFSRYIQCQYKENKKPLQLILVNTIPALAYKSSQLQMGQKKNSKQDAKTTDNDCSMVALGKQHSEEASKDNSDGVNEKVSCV
structure (smiles),measurement,setting,value
CN(C)CCc1c[nH]c2cccc(O)c12 [psilocin],NMDAR2A subunit protein expression,[1]; psilocin 0.05 μM for 6-days,dramatic increase
same,NMDAR2A subunit protein expression,[1]; psilocin 10 μM for 24 hours,"slight, not significant increase"
same,Corneal cell viability,[2]; [21],significant increase in corneal cell viability
same,Cell viability (MTT),"[2]; keratocytes, 0.1 to 1 μM psilocin, up to 6 days",significant increased viability
same,IL-8 mRNA expression,[3],significant decrease
same,IL-1β mRNA expression,[4],significant decrease
same,NMDAR1 expression,[5]; [22],increase of NMDAR1 expression
same,NMDAR1 expression,[5]; alternate incubation or psilocin-containing medium replaced every day (FIGS. 11G-11I context),increased significantly
same,NMDAR1 subunit protein expression,[5]; psilocin 0.05 μM for 6-days,dramatic increase
same,NMDAR1 subunit protein expression,[5]; psilocin 10 μM for 24 hours,"slight, not significant increase"
same,NMDAR2B expression,[6]; [22],decrease of NMDAR2B expression
same,NMDAR2B subunit protein expression,[6]; psilocin 0.05 μM for 6-days,did not change
same,NMDAR2B subunit protein expression,[6]; psilocin 10 μM for 24 hours,did not change
same,IL-12 mRNA expression,[7],significant decrease
same,TNF-α mRNA expression,[8],very low and comparable to that of cells treated only with CM
same,IL-8 gene expression,[9],significant down-regulation
same,Corneal cell viability,[10]; [21],significant increase in corneal cell viability
same,Cell viability (MTT),"[10]; HCE cells, 0.1 to 1 μM psilocin, up to 6 days",significant increased viability
same,Cytotoxic effect in vitro,[11],does not have a cytotoxic effect
same,"% Beta Gal+ cells, single well/duplicate",[12]; Psilocin 5 nM,86.67% and 75% and 85.71% and 81.82%
same,Avg % Beta Gal+ cells,[12]; Psilocin 5 nM,82.3%
same,Total % Beta Gal+ cells,[12]; Psilocin 5 nM,64.45%
same,Antisenescence effects,"[12]; higher doses of psilocin (up 24 microM, experiment not shown)",no antisenescence effects
same,Antisenescence effects,[12]; psilocin lower doses (5 nM),no antisenescence effects
same,Expression of 5-HT2C,[13],increased after chronic treatment
same,Psilocin in bile,[14],3102 ng/mL
same,Psilocin in cardiac blood,[14],67 ng/mL
same,Psilocin in peripheral blood,[14],60 ng/mL
same,Psilocin in urine,[14],2230 ng/mL
same,Psilocin in vitreous humor,[14],57 ng/mL
same,Collagen type I gene expression,[15],did not change significantly
same,Expression of 5-HT2A receptor,[16],virtually no effect
same,VEGF I gene expression,[17],did not change significantly
"CCC(=O)C(C[C@H](C)N(C)C)(c1ccccc1)c1ccccc1 [D methadone, dextromethadone]",Plasma BDNF,[18],statistically significant increase in plasma BDNF
same,Affinity of 5-HT-2A receptors,[19],nanomolar range
same,Nootropic signal,[20]; only the lowest tested dose of 5 mg,elicited a nootropic signal
same,MTD,"[20]; single ascending dose 5-200 mg, nausea and vomiting",150 mg
same,Avg % Beta Gal+ cells,[12]; D methadone 10 nM,79.01%
same,Total % Beta Gal+ cells,[12]; D methadone 10 nM,81.29%
same,"% Beta Gal+ cells, single well/duplicate","[12]; D methadone 10 nM, UVB without treatment Avg 85.63514",71.875% and 85.71% and 77.19% and 81.25%
same,"% Beta Gal+ cells, single well/duplicate",[12]; D methadone 500 nM,82.86% and 82.35% and 76.47% and 91.67%
same,Avg % Beta Gal+ cells,[12]; D methadone 500 nM,83.34%
same,Total % Beta Gal+ cells,[12]; D methadone 500 nM,83.94%
